How the values were obtained:
Type in all cases: functional
UACC-257 = experiment: Cytotoxicity against human UACC257 cells assessed as growth inhibition at 10 uM after 48 hrs by coulter counter analysis; conditions: UACC-257, 48 h, read-out: GI
OVCAR-8 = experiment: Cytotoxicity against human OVCAR8 cells assessed as growth inhibition at 10 uM after 48 hrs by coulter counter analysis; conditions: OVCAR-8, 48 h, read-out: GI
HCT-15 = experiment: Cytotoxicity against human HCT15 cells assessed as growth inhibition at 10 uM after 48 hrs by coulter counter analysis; conditions: HCT-15, 48 h, read-out: GI
PC-3 = experiment: Cytotoxicity against human PC3 cells assessed as growth inhibition at 10 uM after 48 hrs by coulter counter analysis; conditions: PC-3, 48 h, read-out: GI
CAKI-1 = experiment: Cytotoxicity against human Caki1 cells assessed as growth inhibition at 10 uM after 48 hrs by coulter counter analysis; conditions: CAKI-1, 48 h, read-out: GI
SNB-19 = experiment: Cytotoxicity against human SNB19 cells assessed as growth inhibition at 10 uM after 48 hrs by coulter counter analysis; conditions: SNB-19, 48 h, read-out: GI
[1] = Cytotoxicity against human EKVX cells assessed as growth inhibition at 10 uM after 48 hrs by coulter counter analysis; conditions: read-out: GI
IGROV-1 = experiment: Cytotoxicity against human IGROV1 cells assessed as growth inhibition at 10 uM after 48 hrs by coulter counter analysis; conditions: IGROV-1, 48 h, read-out: GI
UO-31 = experiment: Cytotoxicity against human UO31 cells assessed as growth inhibition at 10 uM after 48 hrs by coulter counter analysis; conditions: UO-31, 48 h, read-out: GI
T47D = experiment: Cytotoxicity against human T47D cells assessed as growth inhibition at 10 uM after 48 hrs by coulter counter analysis; conditions: read-out: GI
NCI-H322M = experiment: Cytotoxicity against human NCI-H322M cells assessed as growth inhibition at 10 uM after 48 hrs by coulter counter analysis; conditions: read-out: GI
SK-MEL-28 = experiment: Cytotoxicity against human SK-MEL-28 cells assessed as growth inhibition at 10 uM after 48 hrs by coulter counter analysis; conditions: SK-MEL-28, 48 h, read-out: GI
RXF 393 = experiment: Cytotoxicity against human RXF393 cells assessed as growth inhibition at 10 uM after 48 hrs by coulter counter analysis; conditions: RXF 393, 48 h, read-out: GI
UACC-62 = experiment: Cytotoxicity against human UACC62 cells assessed as growth inhibition at 10 uM after 48 hrs by coulter counter analysis; conditions: UACC-62, 48 h, read-out: GI
NCI-H226 = experiment: Cytotoxicity against human NCI-H226 cells assessed as growth inhibition at 10 uM after 48 hrs by coulter counter analysis; conditions: NCI-H226, 48 h, read-out: GI
KM12 = experiment: Cytotoxicity against human KM12 cells assessed as growth inhibition at 10 uM after 48 hrs by coulter counter analysis; conditions: KM12, 48 h, read-out: GI
SN12C = experiment: Cytotoxicity against human SN12C cells assessed as growth inhibition at 10 uM after 48 hrs by coulter counter analysis; conditions: read-out: GI
786-0 = experiment: Cytotoxicity against human 786-0 cells assessed as growth inhibition at 10 uM after 48 hrs by coulter counter analysis; conditions: 786-0, 48 h, read-out: GI
[2] = Cytotoxicity against human NCI-ADR-RES cells assessed as growth inhibition at 10 uM after 48 hrs by coulter counter analysis; conditions: read-out: GI
A549 = experiment: Cytotoxicity against human A549 cells assessed as growth inhibition at 10 uM after 48 hrs by coulter counter analysis; conditions: A549, 48 h, read-out: GI
A498 = experiment: Cytotoxicity against human A498 cells assessed as growth inhibition at 10 uM after 48 hrs by coulter counter analysis; conditions: A498, 48 h, read-out: GI
HT-29 = experiment: Cytotoxicity against human HT-29 cells assessed as growth inhibition at 10 uM after 48 hrs by coulter counter analysis; conditions: HT-29, 48 h, read-out: GI
LOX IMVI = experiment: Cytotoxicity against human LOXIMVI cells assessed as growth inhibition at 10 uM after 48 hrs by coulter counter analysis; conditions: read-out: GI
U-251 = experiment: Cytotoxicity against human U251 cells assessed as growth inhibition at 10 uM after 48 hrs by coulter counter analysis; conditions: U-251, 48 h, read-out: GI
SK-OV-3 = experiment: Cytotoxicity against human SKOV3 cells assessed as growth inhibition at 10 uM after 48 hrs by coulter counter analysis; conditions: SK-OV-3, 48 h, read-out: GI
SW-620 = experiment: Cytotoxicity against human SW620 cells assessed as growth inhibition at 10 uM after 48 hrs by coulter counter analysis; conditions: SW-620, 48 h, read-out: GI
MCF7 = experiment: Cytotoxicity against human MCF7 cells assessed as growth inhibition at 10 uM after 48 hrs by coulter counter analysis; conditions: MCF7, 48 h, read-out: GI
COLO 205 = experiment: Cytotoxicity against human COLO205 cells assessed as growth inhibition at 10 uM after 48 hrs by coulter counter analysis; conditions: COLO 205, 48 h, read-out: GI
SF-268 = experiment: Cytotoxicity against human SF268 cells assessed as growth inhibition at 10 uM after 48 hrs by coulter counter analysis; conditions: SF-268, 48 h, read-out: GI
Malme-3M = experiment: Cytotoxicity against human MALME-3M cells assessed as growth inhibition at 10 uM after 48 hrs by coulter counter analysis; conditions: read-out: GI
TK-10 = experiment: Cytotoxicity against human TK10 cells assessed as growth inhibition at 10 uM after 48 hrs by coulter counter analysis; conditions: TK-10, 48 h, read-out: GI
OVCAR-4 = experiment: Cytotoxicity against human OVCAR4 cells assessed as growth inhibition at 10 uM after 48 hrs by coulter counter analysis; conditions: OVCAR-4, 48 h, read-out: GI
SNB-75 = experiment: Cytotoxicity against human SNB75 cells assessed as growth inhibition at 10 uM after 48 hrs by coulter counter analysis; conditions: SNB-75, 48 h, read-out: GI
MDA-MB-468 = experiment: Cytotoxicity against human MDA-MB-468 cells assessed as growth inhibition at 10 uM after 48 hrs by coulter counter analysis; conditions: MDA-MB-468, 48 h, read-out: GI
MDA-MB-435 = experiment: Cytotoxicity against human MDA-MB-435 cells assessed as growth inhibition at 10 uM after 48 hrs by coulter counter analysis; conditions: MDA-MB-435, 48 h, read-out: GI
SF-295 = experiment: Cytotoxicity against human SF295 cells assessed as growth inhibition at 10 uM after 48 hrs by coulter counter analysis; conditions: SF-295, 48 h, read-out: GI
M14 = experiment: Cytotoxicity against human M14 cells assessed as growth inhibition at 10 uM after 48 hrs by coulter counter analysis; conditions: M14, 48 h, read-out: GI
OVCAR-5 = experiment: Cytotoxicity against human OVCAR5 cells assessed as growth inhibition at 10 uM after 48 hrs by coulter counter analysis; conditions: OVCAR-5, 48 h, read-out: GI

| SMILES | inhibition of growth at 10 µM (UACC-257) [%] | inhibition of growth at 10 µM (OVCAR-8) [%] | inhibition of growth at 10 µM (HCT-15) [%] | inhibition of growth at 10 µM (PC-3) [%] | inhibition of growth at 10 µM (CAKI-1) [%] | inhibition of growth at 10 µM (SNB-19) [%] | inhibition of growth at 10 µM [1] [%] | inhibition of growth at 10 µM (IGROV-1) [%] | inhibition of growth at 10 µM (UO-31) [%] | inhibition of growth at 10 µM (T47D) [%] | inhibition of growth at 10 µM (NCI-H322M) [%] | inhibition of growth at 10 µM (SK-MEL-28) [%] | inhibition of growth at 10 µM (RXF 393) [%] | inhibition of growth at 10 µM (UACC-62) [%] | inhibition of growth at 10 µM (NCI-H226) [%] | inhibition of growth at 10 µM (KM12) [%] | inhibition of growth at 10 µM (SN12C) [%] | inhibition of growth at 10 µM (786-0) [%] | inhibition of growth at 10 µM [2] [%] | inhibition of growth at 10 µM (A549) [%] | further results |
| --- | --- | --- | --- | --- | --- | --- | --- | --- | --- | --- | --- | --- | --- | --- | --- | --- | --- | --- | --- | --- | --- |
| CCOc1ccc(NC(=O)CSc2nc3ccccc3c(=O)n2CCc2ccccc2)cc1 | < 10 | 29 | < 10 | < 10 | 12 | < 10 | 19 | 21 | 26 | 15 | 23 | < 10 | 13 | < 10 | 31 | < 10 | < 10 | < 10 | < 10 | 13 | inhibition of growth at 10 µM (A498): < 10%; inhibition of growth at 10 µM (HT-29): 10%; inhibition of growth at 10 µM (LOX IMVI): 11%; inhibition of growth at 10 µM (U-251): 27%; inhibition of growth at 10 µM (SK-OV-3): < 10%; inhibition of growth at 10 µM (SW-620): < 10%; inhibition of growth at 10 µM (MCF7): 12%; inhibition of growth at 10 µM (COLO 205): < 10%; inhibition of growth at 10 µM (SF-268): 25%; inhibition of growth at 10 µM (Malme-3M): 37%; inhibition of growth at 10 µM (TK-10): < 10%; inhibition of growth at 10 µM (OVCAR-4): < 10%; inhibition of growth at 10 µM (SNB-75): 21%; inhibition of growth at 10 µM (MDA-MB-468): 10%; inhibition of growth at 10 µM (MDA-MB-435): 14%; inhibition of growth at 10 µM (SF-295): < 10%; inhibition of growth at 10 µM (M14): 10%; inhibition of growth at 10 µM (OVCAR-5): < 10% |
| COc1ccc(NC(=O)CSc2nc3ccccc3c(=O)n2CCc2ccccc2)cc1 | 14 | 40 | < 10 | < 10 | 13 | 41 | 25 | 18 | < 10 | < 10 | 19 | 11 | 21 | 13 | < 10 | 16 | < 10 | < 10 | 15 | 25 | inhibition of growth at 10 µM (A498): < 10%; inhibition of growth at 10 µM (HT-29): < 10%; inhibition of growth at 10 µM (LOX IMVI): < 10%; inhibition of growth at 10 µM (U-251): 29%; inhibition of growth at 10 µM (SK-OV-3): 25%; inhibition of growth at 10 µM (SW-620): 11%; inhibition of growth at 10 µM (MCF7): 11%; inhibition of growth at 10 µM (COLO 205): < 10%; inhibition of growth at 10 µM (SF-268): 47%; inhibition of growth at 10 µM (Malme-3M): 40%; inhibition of growth at 10 µM (TK-10): 10%; inhibition of growth at 10 µM (OVCAR-4): < 10%; inhibition of growth at 10 µM (SNB-75): 72%; inhibition of growth at 10 µM (MDA-MB-468): 13%; inhibition of growth at 10 µM (MDA-MB-435): 10%; inhibition of growth at 10 µM (SF-295): 21%; inhibition of growth at 10 µM (M14): 25%; inhibition of growth at 10 µM (OVCAR-5): < 10% |
| O=C(CSc1nc2ccccc2c(=O)n1CCc1ccccc1)Oc1ccc(Cl)cc1 | < 10 | < 10 | 25 | 25 | 27 | < 10 | 28 | 15 | < 10 | 14 | < 10 | < 10 | < 10 | 11 | 13 | < 10 | < 10 | < 10 | 10 | < 10 | inhibition of growth at 10 µM (A498): 10%; inhibition of growth at 10 µM (HT-29): < 10%; inhibition of growth at 10 µM (LOX IMVI): 14%; inhibition of growth at 10 µM (U-251): < 10%; inhibition of growth at 10 µM (SK-OV-3): 28%; inhibition of growth at 10 µM (SW-620): < 10%; inhibition of growth at 10 µM (MCF7): 34%; inhibition of growth at 10 µM (COLO 205): < 10%; inhibition of growth at 10 µM (SF-268): < 10%; inhibition of growth at 10 µM (Malme-3M): < 10%; inhibition of growth at 10 µM (TK-10): < 10%; inhibition of growth at 10 µM (OVCAR-4): 59%; inhibition of growth at 10 µM (SNB-75): 28%; inhibition of growth at 10 µM (MDA-MB-468): < 10%; inhibition of growth at 10 µM (MDA-MB-435): < 10%; inhibition of growth at 10 µM (SF-295): < 10%; inhibition of growth at 10 µM (M14): < 10%; inhibition of growth at 10 µM (OVCAR-5): < 10% |

Source: ChEMBL document CHEMBL2396621, “Design, synthesis and biological evaluation of 2-mercapto-3-phenethylquinazoline bearing anilide fragments as potential antitumor agents: molecular docking study” (2013)
